In PubChem BioAssay (NCI):
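Cells were grown in 96-well plates and exposed to each compound for 48 hours at five concentrations; endpoints were interpolated linearly between bracketing concentrations, or set to the highest concentration if not reached. GI50: concentration for 50% inhibition of growth. TGI is the concentration that stops growth completely.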

How the values were obtained:
Assay in all cases: NCI tumour cell line growth inhibition, 48 h
786-0 renal = system: 786-0 renal
A498 renal = system: A498 renal
A549 NSCLC = system: A549 NSCLC
ACHN renal = system: ACHN renal
BT-549 breast = system: BT-549 breast
CAKI-1 renal = system: CAKI-1 renal
CCRF-CEM leukemia = system: CCRF-CEM leukemia
COLO 205 colon = system: COLO 205 colon
DU-145 prostate = system: DU-145 prostate
EKVX NSCLC = system: EKVX NSCLC
HCC-2998 colon = system: HCC-2998 colon
HCT-116 colon = system: HCT-116 colon
HCT-15 colon = system: HCT-15 colon
HL-60(TB) leukemia = system: HL-60(TB) leukemia
HOP-62 NSCLC = system: HOP-62 NSCLC
HOP-92 NSCLC = system: HOP-92 NSCLC
HS 578T breast = system: HS 578T breast
HT29 colon = system: HT29 colon
IGROV1 ovarian = system: IGROV1 ovarian
K-562 leukemia = system: K-562 leukemia
KM12 colon = system: KM12 colon
LOX IMVI melanoma = system: LOX IMVI melanoma
M14 melanoma = system: M14 melanoma
MALME-3M melanoma = system: MALME-3M melanoma
MCF7 breast = system: MCF7 breast
MDA-MB-231 breast = system: MDA-MB-231 breast
MDA-MB-435 = system: MDA-MB-435
MOLT-4 leukemia = system: MOLT-4 leukemia
NCI-H226 lung = system: NCI-H226 lung
NCI-H23 lung = system: NCI-H23 lung
NCI-H460 lung = system: NCI-H460 lung
NCI-H522 lung = system: NCI-H522 lung
NCI/ADR-RES ovarian = system: NCI/ADR-RES ovarian
OVCAR-3 ovarian = system: OVCAR-3 ovarian
OVCAR-4 ovarian = system: OVCAR-4 ovarian
OVCAR-5 ovarian = system: OVCAR-5 ovarian
OVCAR-8 ovarian = system: OVCAR-8 ovarian
PC-3 prostate = system: PC-3 prostate
RPMI-8226 leukemia = system: RPMI-8226 leukemia
RXF 393 renal = system: RXF 393 renal
SF-268 CNS = system: SF-268 CNS
SF-295 CNS = system: SF-295 CNS
SF-539 CNS = system: SF-539 CNS
SK-MEL-2 melanoma = system: SK-MEL-2 melanoma
SK-MEL-28 melanoma = system: SK-MEL-28 melanoma
SK-MEL-5 melanoma = system: SK-MEL-5 melanoma
SK-OV-3 ovarian = system: SK-OV-3 ovarian
SN12C renal = system: SN12C renal
SNB-19 CNS = system: SNB-19 CNS
SNB-75 CNS = system: SNB-75 CNS
SR leukemia = system: SR leukemia
SW-620 colon = system: SW-620 colon
T-47D breast = system: T-47D breast
U251 CNS = system: U251 CNS
UACC-257 melanoma = system: UACC-257 melanoma
UACC-62 melanoma = system: UACC-62 melanoma
UO-31 renal = system: UO-31 renal

## CC(C)(c1ccccc1)c1cc(O)c(C(C)(C)c2ccccc2)cc1O
786-0 renal
  GI50: 2.67 µM
  TGI: 9.38 µM
A498 renal
  GI50: 2.16 µM
  TGI: 10.1 µM
A549 NSCLC
  GI50: 2.77 µM
  TGI: 13.4 µM
ACHN renal
  GI50: 2.7 µM
  TGI: 12.2 µM
BT-549 breast
  GI50: 1.57 µM
  TGI: 5.31 µM
CAKI-1 renal
  GI50: 1.71 µM
  TGI: 11.4 µM
CCRF-CEM leukemia
  GI50: 3 µM
  TGI: 13.6 µM
COLO 205 colon
  GI50: 1.66 µM
  TGI: 3.4 µM
DU-145 prostate
  GI50: 3.83 µM
  TGI: 16.2 µM
EKVX NSCLC
  GI50: 1.94 µM
  TGI: 12.5 µM
HCC-2998 colon
  GI50: 2.98 µM
  TGI: 12.8 µM
HCT-116 colon
  GI50: 1.35 µM
  TGI: 3.36 µM
HCT-15 colon
  GI50: 2.35 µM
  TGI: 10.1 µM
HL-60(TB) leukemia
  GI50: 1.84 µM
  TGI: 5.53 µM
HOP-62 NSCLC
  GI50: 3.06 µM
  TGI: 13.4 µM
HOP-92 NSCLC
  GI50: 1.75 µM
  TGI: 6.66 µM
HS 578T breast
  GI50: 3.19 µM
  TGI: 19.6 µM
HT29 colon
  GI50: 1.64 µM
  TGI: 8.91 µM
IGROV1 ovarian
  GI50: 2.7 µM
  TGI: 13.3 µM
K-562 leukemia
  GI50: 1.85 µM
  TGI: 12.2 µM
KM12 colon
  GI50: 1.96 µM
  TGI: 10.8 µM
LOX IMVI melanoma
  GI50: 1.54 µM
  TGI: 3.82 µM
M14 melanoma
  GI50: 1.82 µM
  TGI: 4.99 µM
MALME-3M melanoma
  GI50: 2.32 µM
  TGI: 12.3 µM
MCF7 breast
  GI50: 2.1 µM
  TGI: 11.2 µM
MDA-MB-231 breast
  GI50: 1.43 µM
  TGI: 6.28 µM
MDA-MB-435
  GI50: 1.43 µM
  TGI: 8.85 µM
MOLT-4 leukemia
  GI50: 1.72 µM
  TGI: 7.82 µM
NCI-H226 lung
  GI50: 1.09 µM
  TGI: 16 µM
NCI-H23 lung
  GI50: 2.27 µM
  TGI: 16.2 µM
NCI-H460 lung
  GI50: 2.23 µM
  TGI: 7.53 µM
NCI-H522 lung
  GI50: 3.67 µM
  TGI: 16.7 µM
NCI/ADR-RES ovarian
  GI50: 2.7 µM
  TGI: 12.1 µM
OVCAR-3 ovarian
  GI50: 2.53 µM
  TGI: 8 µM
OVCAR-4 ovarian
  GI50: 1.26 µM
  TGI: 9.92 µM
OVCAR-5 ovarian
  GI50: 2.63 µM
  TGI: 8.58 µM
OVCAR-8 ovarian
  GI50: 3.75 µM
  TGI: 20.9 µM
PC-3 prostate
  GI50: 1.96 µM
  TGI: 10.9 µM
RPMI-8226 leukemia
  GI50: 1.37 µM
  TGI: 14.3 µM
RXF 393 renal
  GI50: 1.83 µM
  TGI: 6.85 µM
SF-268 CNS
  GI50: 2.99 µM
  TGI: 12.8 µM
SF-295 CNS
  GI50: 1.33 µM
  TGI: 3.23 µM
SF-539 CNS
  GI50: 2.73 µM
  TGI: 9.59 µM
SK-MEL-2 melanoma
  GI50: 2.96 µM
  TGI: 13.9 µM
SK-MEL-28 melanoma
  GI50: 2.81 µM
  TGI: 14 µM
SK-MEL-5 melanoma
  GI50: 1.02 µM
  TGI: 2.65 µM
SK-OV-3 ovarian
  GI50: 3.55 µM
  TGI: 14.5 µM
SN12C renal
  GI50: 2.46 µM
  TGI: 11.5 µM
SNB-19 CNS
  GI50: 2.91 µM
  TGI: 12.1 µM
SNB-75 CNS
  GI50: 1.51 µM
  TGI: 11.5 µM
SR leukemia
  GI50: 3 µM
  TGI: 9.86 µM
SW-620 colon
  GI50: 2.77 µM
  TGI: 14.6 µM
T-47D breast
  GI50: 1.81 µM
  TGI: 12.7 µM
U251 CNS
  GI50: 2.14 µM
  TGI: 9.97 µM
UACC-257 melanoma
  GI50: 2.1 µM
  TGI: 10.7 µM
UACC-62 melanoma
  GI50: 1.71 µM
  TGI: 4.93 µM
UO-31 renal
  GI50: 2.1 µM
  TGI: 11.3 µM
